Assays:
Type in all cases: physicochemical
[1] = Repose angle (Sugihara type device); details: low fluidity component model without cellulose
Procedure: Using a Sugihara type repose angle measuring device (slit size: depth 10 mm×width 50 mm×height 140 mm, a protractor was placed at the position of 50 mm width), the dynamic self-fluidity was measured when cellulose powder was dropped to the slit at 3 g/minute using a quantitative feeder. The angle between the bottom of the device and the top layer of the cellulose powder is the repose angle.

[2] = Reactivity to a drug: aspirin decomposition rate after storage mixed with cellulose; details: 60° C., two weeks, closed vial
Procedure: (12) Reactivity to a Drug
Aspirin (Japanese Pharmacopeia crystalline aspirin was treated with a small grinder φ0.5 mm, with 1 pass treatment) and each cellulose sample was mixed at 5/5 (total 0.5 g) in dry conditions and then placed in a glass sample vial and mixed. The vial was stored in an oven (Made by Tabai Espec Corp. Perfect Oven (Commercial Name)) with the cap tightly closed (at 60° C.) for two weeks and then the decomposition rate was measured. Ferric (III) […] sulfate 12 hydrate 8 g was placed in a 100 ml measuring flask, mixed with pure water to bring the volume up to 100 ml to make a coloring test solution. 0.25 g of stored aspirin (total 0.5 g of the blended powder) was introduced to a 50 ml measuring flask, mixed with ethanol to bring the volume up to 50 ml and the mixture was shaken for 5 minutes. Thus obtained ethanol solution was filtered, the filtrate was transferred to a 100 ml measuring flask and ethanol was added to bring the volume up to 100 ml. One milliliter of this ethanol solution and 1 ml of the coloring test solution described above were introduced to a 50 ml measuring flask, mixed with pure water to bring the volume up to 50 ml and the absorption was measured at the wavelength of 532 nm using a UV absorption meter (made by JASCO Corporation). The decomposition rate was calculated from the following formula. […]

[3] = Elution test of drug from cylindrical molded body (paddle, UV absorbance); details: ethenzamide; molded body 50 MPa; paddle 100 rpm, 900 mL Pharmacopeia I liquid
Procedure: Cellulose particles A were used. A commercially available ibuprofen (an active component indicated as being almost completely insoluble in water according to Japanese Pharmacopeia 14) was dissolved in polyethylene glycol (Macrogol 400 from Sanyo Kasei Co., Ltd.) at a proportion of 1:5, and then diluted by 10 with ethanol. This was added to the cellulose particles A to result in 10% by weight. The mixture was stirred in a die. A die (from KIKUSUI SEISAKUSHO LTD, made with SUS 2, 3) was filled with 0.2 g of the obtained powder, and a circular flat punch (from KIKUSUI SEISAKUSHO LTD, made with SUS 2, 3) with a diameter of 0.8 cm was used to apply compression until the pressure reached 100 MPa (PCM-1A (Commercial Name) from AIKOH ENGINEERING CO., LTD. was used with a compression rate of 1 cm/min). The cylindrical molded body was released after the target pressure was maintained for 10 seconds. Fluid component effusion on the surface of the molded body was observed, drug elution from the cylindrical molded body (elution tests were conducted with a JASCO Corporation ultraviolet absorption spectrometer at paddle speed 100 rpm and 900 mL of Pharmacopeia I liquid, in which fluid absorbance was measured and the elution rate was calculated 3 minutes after) and disintegration time of the cylindrical molded bodies was measured. […]

With CC(=O)Nc1ccc(O)cc1 [Component model C, Acetaminophen] the “Repose angle Before the addition of cellulose” value [1] was 55 °.

CC(=O)Oc1ccccc1C(=O)O [aspirin, Aspirin] showed an aspirin decomposition rate [2] of 15%.

In the case of CCOc1ccccc1C(N)=O [Comparative Example 76, ethenzamide], the “Elution rate after 1 hour” value [3] was 9%.
